Assay results reported in US9630977B2, “Cephalosporin derivatives and pharmaceutical compositions thereof” (Legochem Biosciences, Inc., priority 2011, dated 2017).

Key:
P. aeruginosa R1023 = assay: In vivo efficacy, whole-body infected mouse model, Ceftazidime-resistant bacteria;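 as to Survival rate: each column one dose of 5 10 20 or 40 mg/kg given sc at 1 h and 4 h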; parameters: species or system ICR mouse; conditions: for Survival rate: subcutaneous 1 h and 4 h after infection, P. aeruginosa R1023 (2 × 10^6 CFU/mouse), four days
Description: (§1) Pharmaceutical efficacy of the cephalosporin derivative compounds according to the present invention was evaluated in a whole-body infected mouse model. Tables 3 and 4 show survival rate and ED50 values for the two compounds with excellent antibacterial activity with regard to an infected mouse by a drug-sensitive bacteria and a drug-resistant bacteria.
(§2) Test animals: 3 week old male ICR mouse, weight 18˜22 g; 5 mice/group.
(§3) Lab conditions: Temperature of 23±2° C.; humidity of 55±20%.
(§4) Administration method: Inducing whole-body infection by bacterial solution followed by subcutaneous injection (0.2 mL) after 1 hour and 4 hours.
(§5) Test method: Cultured bacteria were diluted with 0.9% NaCl to prepare a bacterial solution having a concentration that is 5 to 10 times of […]. 0.5 mL of bacterial solution was injected through abdominal cavity to induce whole-body infection. Test compounds were administered in four different amounts, which were designed considering in vitro MIC values of the test bacteria. After 1 hour and 4 hours, the four different amounts of the test compounds were subcutaneously administered. Survival rates were measured for four days and ED50 values were calculated according to the Probit method.

P. aeruginosa 1912E = assay: In vivo efficacy, whole-body infected mouse model, Ceftazidime-sensitive bacteria; parameters: species or system ICR mouse; conditions: P. aeruginosa 1912E (2 × 10^6CFU/mouse); for Survival rate: four days
Description: as §1, §2, §3, §4, §5

## C[C@H](O/N=C(\C(=O)N[C@@H]1C(=O)N2C(C(=O)[O-])=C(C[n+]3cnc(N)c(NCCNC(=O)c4cc(=O)c(O)cn4O)c3)CSC12)c1nc(N)sc1Cl)C(=O)O (some centres unmarked) [Compound 4]
P. aeruginosa R1023; Pseudomonas aeruginosa, sc, Probit method, subcutaneous, mouse infected by Ceftazidime-resistant P. aeruginosa R1023
  ED50: 10 mg/kg
P. aeruginosa R1023; administered amount 5 mg/kg
  Survival rate: 40%
P. aeruginosa R1023; administered amount 10 mg/kg
  Survival rate: 40%
P. aeruginosa R1023; administered amount 20 mg/kg
  Survival rate: 80%
P. aeruginosa R1023; administered amount 40 mg/kg
  Survival rate: 100%
P. aeruginosa R1023; whole-body infected mice by the drug-resistant bacteria
  pharmaceutical efficacy (in words): much greater than that of Ceftazidime

## CC(C)(O/N=C(\C(=O)N[C@@H]1C(=O)N2C(C(=O)[O-])=C(/C=C/C[n+]3cnc(N)c(NCCNC(=O)c4cc(=O)c(O)cn4O)c3)CSC12)c1csc(N)n1)C(=O)O (some centres unmarked) [Compound 8]
P. aeruginosa 1912E; 2.5 mg/kg subcutaneous after 1 hour and 4 hours
  Survival rate: 60%
P. aeruginosa 1912E; 5 mg/kg subcutaneous after 1 hour and 4 hours
  Survival rate: 80%
P. aeruginosa 1912E; 10 mg/kg subcutaneous after 1 hour and 4 hours
  Survival rate: 100%
P. aeruginosa 1912E; 20 mg/kg subcutaneous after 1 hour and 4 hours
  Survival rate: 100%
P. aeruginosa 1912E; Pseudomonas aeruginosa, sc, subcutaneous, Probit method
  ED50: 1.25 mg/kg
